# Laboratory results: patent publication US4493828A, “Use of thyrotropin releasing hormone and related peptides as poultry growth promotants” (Merck & Co., Inc., priority 1982, dated 1985)
# System: 4-week-old Hubbard×Hubbard cockerels
# Experiment: Example 2: effect of TRH on growth in 4-week-old male chicks (25 days)
# Assay type: in vivo, chicken
# Description: Four-week-old Hubbard×Hubbard cockerels were used in this experiment, and average weight was 831.38 g. Synthetic TRH (Beckman Co., CA) was dissolved in saline and given daily by intravenous injection via the brachial vein at 0.1 μg/bird, 1.0 μg/bird, and 10 μg/ bird. Birds were weighed twice a week for 4 weeks. Data were analyzed by least squares of variance, using initial weight as a covariant.
# [1] = 1.0 μg/bird/day, 22 (p 0.05) and 25 (p 0.025) days after the start of treatment
# [2] = TRH (high) 10 μg/bird daily intravenous, day 4 after start of treatment
# [3] = TRH (high) 10 μg/bird daily intravenous, day 8 after start of treatment
# [4] = TRH (high) 10 μg/bird daily intravenous, day 11 after start of treatment
# [5] = TRH (high) 10 μg/bird daily intravenous, day 15 after start of treatment
# [6] = TRH (high) 10 μg/bird daily intravenous, day 18 after start of treatment
# [7] = TRH (high) 10 μg/bird daily intravenous, day 22 after start of treatment
# [8] = TRH (high) 10 μg/bird daily intravenous, day 25 after start of treatment
# [9] = TRH (low) 0.1 μg/bird daily intravenous, day 4 after start of treatment
# [10] = TRH (low) 0.1 μg/bird daily intravenous, day 8 after start of treatment
# [11] = TRH (low) 0.1 μg/bird daily intravenous, day 11 after start of treatment
# [12] = TRH (low) 0.1 μg/bird daily intravenous, day 15 after start of treatment
# [13] = TRH (low) 0.1 μg/bird daily intravenous, day 18 after start of treatment
# [14] = TRH (low) 0.1 μg/bird daily intravenous, day 18 after start of treatment, p < 0.1
# [15] = TRH (low) 0.1 μg/bird daily intravenous, day 22 after start of treatment
# [16] = TRH (low) 0.1 μg/bird daily intravenous, day 22 after start of treatment, p < 0.1
# [17] = TRH (low) 0.1 μg/bird daily intravenous, day 25 after start of treatment, p < 0.1
# [18] = TRH (med.) 1.0 μg/bird daily intravenous, day 4 after start of treatment
# [19] = TRH (med.) 1.0 μg/bird daily intravenous, day 8 after start of treatment
# [20] = TRH (med.) 1.0 μg/bird daily intravenous, day 11 after start of treatment
# [21] = TRH (med.) 1.0 μg/bird daily intravenous, day 15 after start of treatment
smiles,measurement,setting,value
"NC(=O)[C@@H]1CCCN1C(=O)[C@H](Cc1c[nH]cn1)NC(=O)[C@@H]1CCC(=O)N1 [TRH, Glp--His--Pro--NH2]",body weight compared with birds receiving saline injections (in words),0.1 μg/bird/day,slight increase in body weight
same,body weight compared with birds receiving saline injections (in words),[1],significant increase in body weight
same,body weight gain as compared with control birds (in words),[1],significant increase
same,body weight compared with birds receiving saline injections (in words),10 μg/bird/day,slight increase in body weight
same,body weight gain as compared with control birds (in words),"10 μg/bird/day, throughout the whole experiment",slight increase in body weight gain
same,body weight gain,[2],156.3 ± 8.4 g
same,"body weight gain, percent increase as compared with control",[2],4.6%
same,"body weight, least squares mean ± standard error of the mean corrected by initial weight",[2],997.7 ± 8.3 g
same,"body weight, percent increased as compared with control",[2],0.7%
same,body weight gain,[3],377.9 ± 15.1 g
same,"body weight gain, percent increase as compared with control",[3],0%
same,"body weight, least squares mean ± standard error of the mean corrected by initial weight",[3],1219.1 ± 15.0 g
same,"body weight, percent increased as compared with control",[3],0%
same,body weight gain,[4],542.9 ± 20.5 g
same,"body weight gain, percent increase as compared with control",[4],0%
same,"body weight, least squares mean ± standard error of the mean corrected by initial weight",[4],1381.7 ± 20.3 g
same,"body weight, percent increased as compared with control",[4],0%
same,body weight gain,[5],786.4 ± 20.4 g
same,"body weight gain, percent increase as compared with control",[5],0.9%
same,"body weight, least squares mean ± standard error of the mean corrected by initial weight",[5],1627.6 ± 20.4 g
same,"body weight, percent increased as compared with control",[5],0.4%
same,body weight gain,[6],981.5 ± 24.3 g
same,"body weight gain, percent increase as compared with control",[6],2.7%
same,"body weight, least squares mean ± standard error of the mean corrected by initial weight",[6],1821.6 ± 24.2 g
same,"body weight, percent increased as compared with control",[6],1.4%
same,body weight gain,[7],1193.2 ± 26.3 g
same,"body weight gain, percent increase as compared with control",[7],2.1%
same,"body weight, least squares mean ± standard error of the mean corrected by initial weight",[7],2034.4 ± 26.3 g
same,"body weight, percent increased as compared with control",[7],1.2%
same,body weight gain,[8],1390.9 ± 28.7 g
same,"body weight gain, percent increase as compared with control",[8],2.9%
same,"body weight, least squares mean ± standard error of the mean corrected by initial weight",[8],2232.1 ± 28.7 g
same,"body weight, percent increased as compared with control",[8],1.7%
same,body weight gain,[9],167.1 ± 8.4 g
same,"body weight gain, percent increase as compared with control",[9],11.8%
same,"body weight, least squares mean ± standard error of the mean corrected by initial weight",[9],1012.2 ± 8.3 g
same,"body weight, percent increased as compared with control",[9],+2.2%
same,body weight gain,[10],407.6 ± 15.1 g
same,"body weight gain, percent increase as compared with control",[10],7.8%
same,"body weight, least squares mean ± standard error of the mean corrected by initial weight",[10],1248 ± 15.0 g
same,"body weight, percent increased as compared with control",[10],+2.4%
same,body weight gain,[11],585.1 ± 20.5 g
same,"body weight gain, percent increase as compared with control",[11],7.0%
same,"body weight, least squares mean ± standard error of the mean corrected by initial weight",[11],1426.4 ± 20.3 g
same,"body weight, percent increased as compared with control",[11],+2.8%
same,body weight gain,[12],822.9 ± 20.4 g
same,"body weight gain, percent increase as compared with control",[12],5.6%
same,"body weight, least squares mean ± standard error of the mean corrected by initial weight",[12],1664.2 ± 20.4 g
same,"body weight, percent increased as compared with control",[12],+2.7%
same,"body weight gain, percent increase as compared with control",[13],6.3%
same,"body weight, percent increased as compared with control",[13],+3.3%
same,body weight gain,[14],1015.8 ± 24.3 g
same,"body weight, least squares mean ± standard error of the mean corrected by initial weight",[14],1856.9 ± 24.2 g
same,"body weight gain, percent increase as compared with control",[15],6.4%
same,"body weight, percent increased as compared with control",[15],3.7%
same,body weight gain,[16],1243.5 ± 26.3 g
same,"body weight, least squares mean ± standard error of the mean corrected by initial weight",[16],2084.7 ± 26.3 g
same,"body weight, percent increased as compared with control","TRH (low) 0.1 μg/bird daily intravenous, day 25 after start of treatment",3.4%
same,"body weight gain, percent increase as compared with control","TRH (low) 0.1 μg/bird daily intravenous, day 25 after start of treatment (end of experiment)",5.6%
same,body weight gain,[17],1428.1 g
same,"body weight, least squares mean ± standard error of the mean corrected by initial weight",[17],2269.3 g
same,body weight gain,[18],170.1 ± 7.9 g
same,"body weight gain, percent increase as compared with control",[18],13.9%
same,"body weight, least squares mean ± standard error of the mean corrected by initial weight",[18],1010.3 ± 7.8 g
same,"body weight, percent increased as compared with control",[18],+2.0%
same,body weight gain,[19],413.4 ± 14.2 g
same,"body weight gain, percent increase as compared with control",[19],9.3%
same,"body weight, least squares mean ± standard error of the mean corrected by initial weight",[19],1254.1 ± 14.2 g
same,"body weight, percent increased as compared with control",[19],+2.8%
same,body weight gain,[20],573.1 ± 19.3 g
same,"body weight gain, percent increase as compared with control",[20],4.5%
same,"body weight, least squares mean ± standard error of the mean corrected by initial weight",[20],1415.4 ± 19.1 g
same,"body weight, percent increased as compared with control",[20],+2.0%
same,body weight gain,[21],823.2 ± 19.2 g
same,"body weight gain, percent increase as compared with control",[21],5.7%
same,"body weight, least squares mean ± standard error of the mean corrected by initial weight",[21],1664.4 ± 19.2 g
